Results published in ChEMBL document CHEMBL1131292, “Synthesis and pharmacology of a new AMPA-kainate receptor agonist with potent convulsant activity” (J Med Chem, 1998).
pIC50: −log10 of the molar value.

Key:
Mus musculus [1] = assay: In Vivo evaluation of the Compound administered through icv for the Clonic seizure presence alone in mice.; type: functional
Mus musculus [2] = assay: In Vivo evaluation of the Compound administered through icv for the Clonic seizure presence along with […] in mice. (+/-95% confidence limits within parenthesis); nM per mouse; type: functional
Mus musculus [3] = assay: In Vivo evaluation of the Compound administered through icv for the tonicity in presence alone in mice.; type: functional
Mus musculus [4] = assay: In Vivo evaluation of the Compound administered through icv for the Clonic seizure presence along with the antagonist GYKI 52466 in mice.; type: functional
[5] = Potency ratio (the ratio between the CD50 value of the drug in the presence of antagonist versus its CD50 value) for compound in presence of CPP compound in presence of NBQX; range 1.1-1.3; type: functional
[6] = Potency ratio (the ratio between the CD50 value of the drug in the presence of antagonist versus its CD50 value) for compound in presence of CPP; range 2.9-3.4; type: functional
[7] = Potency ratio (the ratio between the CD50 value of the drug in the presence of antagonist versus its CD50 value) for compound in presence of GYKI 52466; range 1.4-2.1; type: functional
Glutamate NMDA receptor = assay: Compound was evaluated for binding affinity at N-methyl-D-aspartate glutamate receptor using [3H]CPP as radioligand; type: protein-complex assay
[8] = biological target: Glutamate receptor ionotropic, AMPA (Rattus norvegicus, UniProt P19490+P19491+P19492+P19493)
Description: Compound was evaluated for binding affinity at Ionotropic glutamate receptor AMPA using [3H]AMPA as radioligand

[9] = biological target: Glutamate receptor ionotropic, kainate; assay: Compound was evaluated for binding affinity at Ionotropic glutamate receptor kainate using [3H]- KAIN as radioligand; type: protein-complex assay
Mus musculus [10] = assay: In Vivo evaluation of the Compound administered through icv for the Clonic seizure presence along with […] in mice.; type: functional
Mus musculus [11] = assay: In Vivo evaluation of the Compound administered through icv for tonicity in presence alone in mice; type: functional
Mus musculus [12] = assay: In Vivo evaluation of the Compound administered through icv for the for tonicity in presence along with the antagonist GYKI 52466 in mice; type: functional
Mus musculus [13] = assay: In Vivo evaluation of the Compound administered through icv for the for tonicity in presence of the compound along with the antagonist NBQX in mice; type: functional
Mus musculus [14] = assay: In Vivo evaluation of the Compound administered through icv for the for tonicity in presence along with […] in mice; type: functional
Mus musculus [15] = assay: In Vivo evaluation of the Compound administered through icv for the Clonic seizure presence of the compound along with the antagonist NBQX in mice; type: functional
Mus musculus [16] = assay: In Vivo evaluation of the Compound administered through icv for tonicity in presence along with […] in mice.; type: functional
Mus musculus [17] = assay: In Vivo evaluation of the Compound administered through icv for the Clonic seizure presence along with the antagonist GYKI 52466 in mice; type: functional
Mus musculus [18] = assay: In Vivo evaluation of the Compound administered through icv for the Clonic seizure presence along with the antagonist NBQX in mice.; type: functional
Mus musculus [19] = assay: In Vivo evaluation of the Compound administered through icv for tonicity in presence along with the antagonist NBQX in mice.; type: functional
Mus musculus [20] = assay: In Vivo evaluation of the Compound administered through icv for the tonicity in presence along with the antagonist GYKI 52466 in mice.; type: functional
Mus musculus [21] = assay: In Vivo evaluation of the Compound administered through icv for tonicity in presence alone in mice.; type: functional
Mus musculus [22] = assay: In Vivo evaluation of the Compound administered through icv for tonicity in presence of the compound along with the antagonist NBQX in mice.; type: functional
Mus musculus [23] = assay: In Vivo evaluation of the Compound administered through icv for the Clonic seizure presence of the compound along with the antagonist NBQX in mice.; type: functional
Mus musculus [24] = assay: In Vivo evaluation of the Compound administered through icv for tonicity in presence along with the antagonist GYKI 52466 in mice.; type: functional

`O=C(O)C1=NO[C@H]2[C@@H]1CN[C@@H]2C(=O)O` showed a CD50 (Mus musculus [1]) of 8.48 nmol/mouse, a CD50 (Mus musculus [2]) of 24.82 nM and a CD50 (Mus musculus [3]) of 39.9 nM. It also gave a CD50 (Mus musculus [4]) of 17.5 nmol/mouse, a Ratio [5] of 1.1 and a Ratio [6] of 2.9. It also gave a Ratio [7] of 1.4, a pIC50 (Glutamate NMDA receptor) of 4.64 and a pIC50 [8] of 4.61. The pIC50 [9] was 4.32.

In the case of `Cc1onc(O)c1C[C@H](N)C(=O)O` [(S)-AMPA], the CD50 (Mus musculus [1]) was 1.76 nmol/mouse, the CD50 (Mus musculus [10]) was 2.69 nmol/mouse and the CD50 (Mus musculus [4]) was 7.61 nmol/mouse. The CD50 (Mus musculus [11]) was 2.9 nmol, the CD50 (Mus musculus [12]) was 16.1 nmol and the CD50 (Mus musculus [13]) was 15.7 nmol. For the same compound, the CD50 (Mus musculus [14]) was 3.18 nM and the CD50 (Mus musculus [15]) was 6.7 nmol/mouse.

With `O=C(O)C1=NO[C@H]2CN[C@H](C(=O)O)[C@@H]12` the CD50 (Mus musculus [1]) was 0.027 nmol/mouse, the CD50 (Mus musculus [16]) was 0.19 nmol and the CD50 (Mus musculus [17]) was 0.5 nM. The CD50 (Mus musculus [10]) was 0.039 nmol/mouse, the CD50 (Mus musculus [18]) was 0.43 nM and the CD50 (Mus musculus [19]) was 0.99 nM. The pIC50 (Glutamate NMDA receptor) was < 4.00, the pIC50 [8] was 5.89 and the CD50 (Mus musculus [20]) was 1.26 nM. For the same compound, the pIC50 [9] was 6.32.

`C=C(C)[C@H]1CN[C@H](C(=O)O)[C@H]1CC(=O)O` [KAINIC ACID] gave a CD50 (Mus musculus [1]) of 0.015 nmol/mouse, a CD50 (Mus musculus [16]) of 0.071 nmol/mouse and a CD50 (Mus musculus [21]) of 0.032 nmol/mouse. The CD50 (Mus musculus [10]) was 0.024 nmol/mouse, the CD50 (Mus musculus [4]) was 0.071 nmol/mouse and the pIC50 (Glutamate NMDA receptor) was < 4.00. The CD50 (Mus musculus [22]) was 0.468 nmol/mouse, the CD50 (Mus musculus [23]) was 0.094 nmol and the CD50 (Mus musculus [24]) was 0.232 nmol/mouse.
